Source: patent publication US12371454B2, “Cyclic peptide compound having Kras inhibitory action” (priority 2019, dated 2025)
Starred links: 1 amine or outer side, 2 acyl side, 3 side chain; linkers in the order of their positions; H or OH if unused. Positions of bridges follow the written chain, without caps; N, C: chain ends. Non-standard residues stand in square brackets, D forms with d. Residues, ends and D or L forms follow the SMILES beside them. *: point of attachment. hPhe(3-Cl-4-CF3) = N[C@@H](CCc1ccc(C(F)(F)F)c(Cl)c1)C(=O)O; NMePhe(3-CN) = CN[C@@H](Cc1cccc(C#N)c1)C(=O)O; NMePhe(4-Me) = CN[C@@H](Cc1ccc(C)cc1)C(=O)O; NMedβ3hAla = C[C@H](CC(=O)[*:2])N(C)[*:1]; X22 = O=C([C@@H]1Cc2ccccc2N1[*:1])[*:2]; NMeGly(cPent) = CN[C@H](C(=O)O)C1CCCC1; Phe(3-I) = N[C@@H](Cc1cccc(I)c1)C(=O)O; Phe(4-F) = N[C@@H](Cc1ccc(F)cc1)C(=O)O; NMeCha = CN[C@@H](CC1CCCCC1)C(=O)O; NMeCba = CN[C@@H](CC1CCC1)C(=O)O; NMeChg = CN[C@H](C(=O)O)C1CCCCC1; NMeI = CC[C@H](C)[C@H](NC)C(=O)O; N(CH2CH2)2CF2 = FC1(F)CCN(*)CC1; NMeD = CN[C@@H](CC(=O)O)C(=O)O; NMeL = CN[C@@H](CC(C)C)C(=O)O; NMeV = CN[C@H](C(=O)O)C(C)C; Azetidin(1-yl) = C1CN(*)C1; Pip = O=C(O)[C@@H]1CCCCN1; NMeA = CN[C@@H](C)C(=O)O; NMeAib = CNC(C)(C)C(=O)O; Piperidide = C1CCN(*)CC1; Pra = C#CC[C@H](N)C(=O)O; Ac5c = NC1(C(=O)O)CCCC1; Aze = O=C(O)[C@@H]1CCN1; Sar = CNCC(=O)O

Each compound was assayed against T1, Kras and SOS1 (biotin-tagged human Kras loaded with GDP, His-tagged human SOS1) (Homo sapiens, UniProt P01116, G12D) (assay: Protein-protein interaction inhibition between Kras and SOS1 (KrasGl2D-SOS PPI) using AlphaScreen). Settings: AlphaScreen; biotin-tagged human Kras loaded with GDP, His-tagged human SOS1; read-out: KRAS G12D-SOS PPI IC50.
T1 construct: made in house; host or cells: E. coli (stated for Kras only)
T1 sequence (P01116 1-188 isoform P01116-2 G12D): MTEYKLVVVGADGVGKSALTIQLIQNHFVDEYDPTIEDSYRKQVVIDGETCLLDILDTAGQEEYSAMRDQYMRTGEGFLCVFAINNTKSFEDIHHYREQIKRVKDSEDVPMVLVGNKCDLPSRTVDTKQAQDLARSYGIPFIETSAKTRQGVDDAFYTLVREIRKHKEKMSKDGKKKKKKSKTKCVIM
Assay type: binding
Method in brief: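 AlphaScreen format: Ni donor beads capture His-SOS1, streptavidin acceptor beads capture biotinylated Kras (E. coli-expressed, GDP-loaded post-purification). Excite 680 nm, read 520-620 nm.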
In the case of CC[C@H](C)[C@@H]1NC(=O)[C@H](CC(C)C)N(C)C(=O)C[C@@H](C(=O)N2CCCCC2)N(C)C(=O)[C@H](C(C)C)N(C)C(=O)C2(CCCC2)NC(=O)[C@@H]2CCCN2C(=O)[C@H](CCc2ccc(C(F)(F)F)c(Cl)c2)NC(=O)CN(C)C(=O)[C@H](Cc2cccc(C#N)c2)N(C)C(=O)CN(C)C(=O)CN(C)C1=O [Compound 710] ([NMeL]I[Sar][Sar][NMePhe(3-CN)][Sar][hPhe(3-Cl-4-CF3)]P[Ac5c][NMeV][NMeD]-Piperidide; lactam N-11), the IC50 is reported as 4.4 nM.
Compound CC[C@H](C)[C@@H]1NC(=O)[C@H](CC(C)C)N(C)C(=O)C[C@@H](C(=O)N2CCCCC2)N(C)C(=O)[C@H](CC(C)C)NC(=O)C(C)(C)N(C)C(=O)[C@H](Cc2ccc(F)cc2)NC(=O)[C@H](Cc2cccc(I)c2)NC(=O)CN(C)C(=O)[C@H](CC2CCCCC2)N(C)C(=O)CN(C)C(=O)CN(C)C1=O [Compound 711] ([NMeL]I[Sar][Sar][NMeCha][Sar][Phe(3-I)][Phe(4-F)][NMeAib]L[NMeD]-Piperidide; lactam N-11) has an IC50 of 35 nM.
Compound CC[C@H](C)[C@@H]1NC(=O)[C@H](CC(C)C)N(C)C(=O)C[C@@H](C(=O)N(C)C)N(C)C(=O)[C@H]([C@@H](C)CC)N(C)C(=O)[C@H](C)NC(=O)[C@H](C)N(C)C(=O)[C@H](CCc2ccc(C(F)(F)F)c(Cl)c2)NC(=O)CN(C)C(=O)[C@H](Cc2ccc(C)cc2)N(C)C(=O)[C@@H]2CCN2C(=O)[C@H](C)N(C)C1=O [Compound 715] ([NMeL]I[NMeA][Aze][NMePhe(4-Me)][Sar][hPhe(3-Cl-4-CF3)][NMeA]A[NMeI][NMeD]-NMe2; lactam N-11) has an IC50 of 6.1 nM.
C#CC[C@@H]1NC(=O)[C@H](CC(C)C)N(C)C(=O)C[C@@H](C(=O)N2CCCCC2)N(C)C(=O)[C@H](C2CCCCC2)N(C)C(=O)C2(CCCC2)NC(=O)[C@@H]2CCCN2C(=O)[C@H](CCc2ccc(C(F)(F)F)c(Cl)c2)NC(=O)CN(C)C(=O)[C@H](CC2CCCCC2)N(C)C(=O)CN(C)C(=O)CN(C)C1=O [Compound 716] ([NMeL][Pra][Sar][Sar][NMeCha][Sar][hPhe(3-Cl-4-CF3)]P[Ac5c][NMeChg][NMeD]-Piperidide; lactam N-11) gave an IC50 of 1.1 nM.
With CC[C@H](C)[C@@H]1NC(=O)[C@H](CC(C)C)N(C)C(=O)C[C@@H](C(=O)N2CCC2)N(C)C(=O)[C@H](C2CCCC2)N(C)C(=O)C2(CCCC2)NC(=O)[C@H](CC(=O)N2CCC(F)(F)CC2)N(C)C(=O)[C@H](CCc2ccc(C(F)(F)F)c(Cl)c2)NC(=O)CN(C)C(=O)[C@H](CC2CCCCC2)N(C)C(=O)[C@@H]2CCN2C(=O)[C@H](C)N(C)C1=O [Compound 719] ([NMeL]I[NMeA][Aze][NMeCha][Sar][hPhe(3-Cl-4-CF3)][NMeD](N(CH2CH2)2CF2)[Ac5c][NMeGly(cPent)][NMeD]-{Azetidin(1-yl)}; lactam N-11) the IC50 was 5.9 nM.
In the case of CC[C@H](C)[C@@H]1NC(=O)[C@H](CC(C)C)N(C)C(=O)C[C@@H](C(=O)N2CCCCC2)N(C)C(=O)[C@H](C2CCCCC2)N(C)C(=O)C2(CCCC2)NC(=O)[C@@H]2CCCN2C(=O)[C@H](CCc2ccc(C(F)(F)F)c(Cl)c2)NC(=O)[C@H](C)N(C)C(=O)[C@H](CC2CCCCC2)N(C)C(=O)CN(C)C(=O)CN(C)C1=O [Compound 722] ([NMeL]I[Sar][Sar][NMeCha][NMeA][hPhe(3-Cl-4-CF3)]P[Ac5c][NMeChg][NMeD]-Piperidide; lactam N-11), the IC50 is reported as 420 nM.
Work on CC[C@H](C)[C@@H]1NC(=O)[C@H](CC(C)C)N(C)C(=O)C[C@@H](C)N(C)C(=O)[C@H](CC2CCC2)N(C)C(=O)C2(CCCC2)NC(=O)[C@@H]2CCCN2C(=O)[C@H](CCc2ccc(C(F)(F)F)c(Cl)c2)NC(=O)CN(C)C(=O)[C@H](CC2CCCCC2)N(C)C(=O)CN(C)C(=O)CN(C)C1=O [Compound 723] (cyclo([Ac5c][NMeCba][NMedβ3hAla][NMeL]I[Sar][Sar][NMeCha][Sar][hPhe(3-Cl-4-CF3)]P)) yielded an IC50 of 17 nM.
With CC[C@H](C)[C@@H]1NC(=O)[C@H](CC(C)C)N(C)C(=O)C[C@@H](C(=O)N2CCCCC2)N(C)C(=O)[C@H](C2CCCCC2)N(C)C(=O)C2(CCCC2)NC(=O)[C@@H]2Cc3ccccc3N2C(=O)[C@H](CCc2ccc(C(F)(F)F)c(Cl)c2)NC(=O)CN(C)C(=O)[C@H](CC2CCCCC2)N(C)C(=O)[C@@H]2CCN2C(=O)CN(C)C1=O [Compound 725] ([NMeL]I[Sar][Aze][NMeCha][Sar][hPhe(3-Cl-4-CF3)][X22][Ac5c][NMeChg][NMeD]-Piperidide; lactam N-11) the IC50 was 7.8 nM.
CC[C@H](C)[C@@H]1NC(=O)[C@H](CC(C)C)N(C)C(=O)C[C@@H](C(=O)N2CCCCC2)N(C)C(=O)[C@H](C2CCCCC2)N(C)C(=O)C2(CCCC2)NC(=O)[C@@H]2CCCCN2C(=O)[C@H](CCc2ccc(C(F)(F)F)c(Cl)c2)NC(=O)CN(C)C(=O)[C@H](CC2CCCCC2)N(C)C(=O)CN(C)C(=O)CN(C)C1=O [Compound 728] ([NMeL]I[Sar][Sar][NMeCha][Sar][hPhe(3-Cl-4-CF3)][Pip][Ac5c][NMeChg][NMeD]-Piperidide; lactam N-11) was tested, and the IC50 was 16 nM.
